From patent US20170190671A1, “BIS(ARYL)CATECHOL DERIVATIVES AS HERBICIDES” (E I DU PONT DE NEMOURS AND COMPANY, priority 2014, published 2017)

Assays:
Assay in all cases: Test C postemergence
Format in all cases: in vivo
[1] = tested on: ragweed (common ragweed, Ambrosia elatior); conditions: Ambrosia artemisiifolia, post-emergence, 336 h, Postemergence, scale 0 to 100, read-out: Plant response rating, Ragweed
Method in brief: (§1)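 Treatment is preemergence to seeds in a loam and sand soil, or postemergence to plants 2 to 18 cm high in a peat moss-based medium. The compound is delivered in a non-phytotoxic solvent mixture including surfactant. Effects are judged by eye 13 to 15 days later on a 0 to 100 scale.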

[2] = tested on: johnsongrass (Sorghum halepense); conditions: Sorghum halepense, post-emergence, 336 h, Postemergence, scale 0 to 100, read-out: Plant response rating, Johnsongrass
Method in brief: as §1

wild oat (Avena fatua) = conditions: Avena fatua, post-emergence, Postemergence, scale 0 to 100, read-out: Plant response rating, Oat, Wild
Method in brief: as §1

[3] = tested on: yellow nutsedge (Cyperus esculentus); conditions: Cyperus, post-emergence, 336 h, Postemergence, scale 0 to 100, read-out: Plant response rating, Nutsedge, Yellow
Method in brief: as §1

soybean (Glycine max) = conditions: Glycine max, post-emergence, Postemergence, scale 0 to 100, read-out: Plant response rating, Soybean
Method in brief: as §1

[4] = tested on: giant foxtail (Setaria faberii); conditions: Setaria faberi, post-emergence, 336 h, Postemergence, scale 0 to 100, read-out: Plant response rating, Foxtail, Giant
Method in brief: as §1

[5] = tested on: barnyardgrass (Echinochloa crus-galli); conditions: Echinochloa crus-galli, post-emergence, Postemergence, scale 0 to 100, read-out: Plant response rating, Barnyardgrass
Method in brief: as §1

[6] = tested on: Italian ryegrass (Lolium multiflorum); conditions: Lolium multiflorum, post-emergence, 336 h, Postemergence, scale 0 to 100, read-out: Plant response rating, Ryegrass, Italian
Method in brief: as §1

[7] = tested on: oilseed rape (Brassica napus); conditions: Brassica napus, post-emergence, Postemergence, scale 0 to 100, read-out: Plant response rating, Oilseed Rape
Method in brief: as §1

[8] = tested on: pigweed (Amaranthus retroflexus); conditions: Amaranthus retroflexus, post-emergence, 336 h, Postemergence, scale 0 to 100, read-out: Plant response rating, Pigweed
Method in brief: as §1

[9] = tested on: lambsquarters (Chenopodium album); conditions: Chenopodium album, post-emergence, 336 h, Postemergence, scale 0 to 100, read-out: Plant response rating, Lambsquarters
Method in brief: as §1

corn (Zea mays) = conditions: Zea mays, post-emergence, 336 h, Postemergence, scale 0 to 100
Method in brief: as §1

[10] = tested on: waterhemp (common waterhemp, Amaranthus rudis); conditions: Amaranthus tuberculatus, post-emergence, Postemergence, scale 0 to 100, read-out: Plant response rating, Waterhemp
Method in brief: as §1

[11] = tested on: blackgrass (Alopecurus myosuroides); conditions: Alopecurus myosuroides, post-emergence, 336 h, Postemergence, scale 0 to 100, read-out: Plant response rating, Blackgrass
Method in brief: as §1

[12] = tested on: chickweed (common chickweed, Stellaria media); conditions: Stellaria media, post-emergence, Postemergence, scale 0 to 100, read-out: Plant response rating, Chickweed
Method in brief: as §1

SMILES: Fc1cccc(Oc2ncc(C(F)(F)F)cn2)c1Oc1ncc(Cl)cn1 [Compound 42, 5-chloro-2-[2-fluoro-6-[[5-(trifluoromethyl)-2-pyrimidinyl]oxy]phenoxy]pyrimidine]
- pest or weed control at 31 g/ha ([1]; 31 g ai/ha): 65%
- pest or weed control at 62 g/ha ([1]; 62 g ai/ha): 70%
- pest or weed control at 125 g/ha ([1]; 125 g ai/ha): 65%
- pest or weed control at 16 g/ha ([2]; 16 g ai/ha): 10%
- pest or weed control at 31 g/ha ([2]; 31 g ai/ha): 10%
- pest or weed control at 62 g/ha ([2]; 62 g ai/ha): 10%
- pest or weed control at 125 g/ha ([2]; 125 g ai/ha): 40%
- pest or weed control at 31 g/ha (wild oat (Avena fatua); 31 g ai/ha): 10%
- pest or weed control at 62 g/ha (wild oat (Avena fatua); 62 g ai/ha): 40%
- pest or weed control at 125 g/ha (wild oat (Avena fatua); 125 g ai/ha): 60%
- pest or weed control at 31 g/ha ([3]; 31 g ai/ha): 0%
- pest or weed control at 62 g/ha ([3]; 62 g ai/ha): 5%
- pest or weed control at 125 g/ha ([3]; 125 g ai/ha): 5%
- plant injury at 31 g/ha (soybean (Glycine max); 31 g ai/ha): 55%
- plant injury at 62 g/ha (soybean (Glycine max); 62 g ai/ha): 65%
- plant injury at 125 g/ha (soybean (Glycine max); 125 g ai/ha): 85%
- pest or weed control at 16 g/ha ([4]; 16 g ai/ha): 30%
- pest or weed control at 31 g/ha ([4]; 31 g ai/ha): 30%
- pest or weed control at 62 g/ha ([4]; 62 g ai/ha): 35%
- pest or weed control at 125 g/ha ([4]; 125 g ai/ha): 35%
- pest or weed control at 16 g/ha ([5]; 16 g ai/ha): 5%
- pest or weed control at 31 g/ha ([5]; 31 g ai/ha): 5%
- pest or weed control at 62 g/ha ([5]; 62 g ai/ha): 10%
- pest or weed control at 125 g/ha ([5]; 125 g ai/ha): 20%
- pest or weed control at 31 g/ha ([6]; 31 g ai/ha): 0%
- pest or weed control at 62 g/ha ([6]; 62 g ai/ha): 10%
- pest or weed control at 125 g/ha ([6]; 125 g ai/ha): 35%
- plant injury at 31 g/ha ([7]; 31 g ai/ha): 50%
- plant injury at 62 g/ha ([7]; 62 g ai/ha): 70%
- plant injury at 125 g/ha ([7]; 125 g ai/ha): 85%
- pest or weed control at 31 g/ha ([8]; 31 g ai/ha): 90%
- pest or weed control at 62 g/ha ([8]; 62 g ai/ha): 98%
- pest or weed control at 125 g/ha ([8]; 125 g ai/ha): 98%
- pest or weed control at 16 g/ha ([9]; 16 g ai/ha): 80%
- pest or weed control at 31 g/ha ([9]; 31 g ai/ha): 80%
- pest or weed control at 62 g/ha ([9]; 62 g ai/ha): 90%
- pest or weed control at 125 g/ha ([9]; 125 g ai/ha): 95%
- Corn plant response rating (crop injury, 0 = no effect, 100 = complete kill) at 16 g/ha (corn (Zea mays); 16 g ai/ha): 5%
- Corn plant response rating (crop injury, 0 = no effect, 100 = complete kill) at 31 g/ha (corn (Zea mays); 31 g ai/ha): 5%
- Corn plant response rating (crop injury, 0 = no effect, 100 = complete kill) at 62 g/ha (corn (Zea mays); 62 g ai/ha): 10%
- Corn plant response rating (crop injury, 0 = no effect, 100 = complete kill) at 125 g/ha (corn (Zea mays); 125 g ai/ha): 25%
- pest or weed control at 31 g/ha ([10]; 31 g ai/ha): 90%
- pest or weed control at 62 g/ha ([10]; 62 g ai/ha): 95%
- pest or weed control at 125 g/ha ([10]; 125 g ai/ha): 95%
- pest or weed control at 16 g/ha ([11]; 16 g ai/ha): 10%
- pest or weed control at 31 g/ha ([11]; 31 g ai/ha): 20%
- pest or weed control at 62 g/ha ([11]; 62 g ai/ha): 20%
- pest or weed control at 125 g/ha ([11]; 125 g ai/ha): 80%
- pest or weed control at 16 g/ha ([12]; 16 g ai/ha): 20%
- pest or weed control at 31 g/ha ([12]; 31 g ai/ha): 90%
- pest or weed control at 62 g/ha ([12]; 62 g ai/ha): 95%
- pest or weed control at 125 g/ha ([12]; 125 g ai/ha): 95%
